In test [1] the test system is A375 cells. The experiment in a line: ceramide levels in A375 human melanoma cells. It is filed as cell-based. Conditions: 25 μM. The protocol:
(§1) Specifically, FIG. 1 evidences the effects of compound of Example 7 or vehicle (0.1% DMSO in DMEM) on AC activity and ceramide levels in A375 (left panel) or MeWo (right panel) human melanoma cell lines. (A-B) Intact cells were treated with compound of Example 7 (25 μM) or vehicle and AC activity was measured 30 minutes or 3 hours later in cell lysates. (B) Intact cells were exposed to compound of Example 7 (25 μM) for 2 hours or 24 hours and medium chain ceramides (C-D), long chain ceramides (E-F) and dihydroceramides (G-H) were quantified. Results are expressed as mean±s.e.m. (n=3). *p<0.05, **p<0.01, ***p<0.001 vs vehicle, two-way ANOVA followed by Dunnet.
Lipids were extracted from mouse tissue lysate with a chloroform/MeOH mixture (2:1 v/v, 3 mL) containing internal standards. The organic phase was collected, dried under nitrogen, and dissolved in chloroform/MeOH (1:3 v/v) for LC-MS analyses. Ceramides, sphingosine and sphinganine were analyzed by LC-MS/MS, using a Waters Acquity UPLC coupled with a Waters Xevo TQMS and interfaced with ESI. Separation was done on a Waters Acquity BEH C18 1.7 μm column (2.1×50 mm) at 60° C. A step gradient of 0.1% formic acid in acetonitrile/water (20:80 v/v) as solvent A and 0.1 formic acid in acetonitrile/isopropyl alcohol (20:80 v/v) as solvent B was applied at a flow rate of 0.4 mL/min. Detection was in the positive ionization mode. Capillary voltage was 3.5 kV and cone voltage was 25 V. The source temperature and desolvation temperatures were set at 120° C. and 600° C. respectively. […]
Tissue-derived ceramides were identified by comparison of their LC retention times and MS^2 fragmentation patterns with those of authentic standards (Avanti Polar Lipids). Extracted ion chromatograms were used to quantify myristoyl ceramide (C14:0, m/z 510.5>492.5>264.3), palmitoyl ceramide (C16:0, m/z 538.5>520.3>264.3), stearoyl ceramide (C18:0 m/z 566.5>548.3>264.3), lignoceroyl ceramide (C24:0 m/z 650.5>632.3>264.3), nervonoyl ceramide (C24:1 m/z 648.5>630.3>264.3) and using lauroyl ceramide standard (m/z 482.5>464.5>264.3). […]

In test [2] the target is AC (Homo sapiens (Human), UniProt Q13510). The experiment in a line: AC activity in MeWo human melanoma cells. It is filed as cell-based. Conditions: 25 μM, evident at 30 minutes, lasted up to 3 hours. The method, then:
as §1
hAC protein preparation (10 μg) was preincubated with inhibitors (final DMSO concentration 1%) in assay buffer (100 mM sodium phosphate, 0.1% Nonidet P-40, 150 mM NaCl, 3 mM DTT, 100 mM sodium citrate, pH 4.5) for 30 min at 37° C. Reactions were started by the addition of 50 μM N-lauroyl ceramide (Nu-Chek Prep, Elysian, Minn.) and carried on for 30 min at 37° C. […] The organic phases were collected, dried under nitrogen and analyzed by UPLC/MS (Acquity, Waters). […]
The [M−H]^− ion was monitored in the selected-ion monitoring mode (m/z values: lauric acid 199, 11-lauroleic acid 197.35). […] Inhibition of AC activity was calculated as reduction of lauric acid in the samples compared to vehicle controls. […]

Test [3] has as its target COX2 (h) (Homo sapiens (Human), UniProt P35354). The experiment in a line: Cerep enzyme inhibition screen: COX2. To be noted: mean of two determinations, read-out: Inhibitory activity (% Inh. at 10 μM), mean. It is filed as biochemical. From the text:
(§2) Compound of Example 25 falling in both Formula (I) and (Ia) was selected to be tested for off-target effects on a set of enzymes that include proteases (aspartic, cysteine, and serine), cyclooxygenases as well as lipoxygenases and group IV phospholipase (sPLA2) (Table 3). [table]

The target of test [4] is cathepsin B (h) (Homo sapiens (Human), UniProt P07858). The experiment in a line: Cerep enzyme inhibition screen: cathepsin B. It is filed as biochemical. To be noted: mean of two determinations, read-out: Inhibitory activity (% Inh. at 10 μM), mean.
Description: as §2

For test [5], the system named is PLC. The test is described as follows: Cerep enzyme inhibition screen: PLC. It is filed as biochemical. To be noted: mean of two determinations. From the text:
Compound of Example 25 falling in both Formula (I) and (Ia) was selected to be tested for off-target effects on a set of enzymes that include proteases (aspartic, cysteine, and serine), cyclooxygenases as well as lipoxygenases and group IV phospholipase (sPLA2) (Table 3).

The subject of test [6] is proteases (aspartic, cysteine, and serine), cyclooxygenases, lipoxygenases and group IV phospholipase (sPLA2). The experiment in a line: off-target test on a set of enzymes (overall statement). It is filed as biochemical. To be noted: 10 μM.
Description: as §2

Each structure is given as a SMILES string.

Sequence of COX2 (h) (P35354 18-604): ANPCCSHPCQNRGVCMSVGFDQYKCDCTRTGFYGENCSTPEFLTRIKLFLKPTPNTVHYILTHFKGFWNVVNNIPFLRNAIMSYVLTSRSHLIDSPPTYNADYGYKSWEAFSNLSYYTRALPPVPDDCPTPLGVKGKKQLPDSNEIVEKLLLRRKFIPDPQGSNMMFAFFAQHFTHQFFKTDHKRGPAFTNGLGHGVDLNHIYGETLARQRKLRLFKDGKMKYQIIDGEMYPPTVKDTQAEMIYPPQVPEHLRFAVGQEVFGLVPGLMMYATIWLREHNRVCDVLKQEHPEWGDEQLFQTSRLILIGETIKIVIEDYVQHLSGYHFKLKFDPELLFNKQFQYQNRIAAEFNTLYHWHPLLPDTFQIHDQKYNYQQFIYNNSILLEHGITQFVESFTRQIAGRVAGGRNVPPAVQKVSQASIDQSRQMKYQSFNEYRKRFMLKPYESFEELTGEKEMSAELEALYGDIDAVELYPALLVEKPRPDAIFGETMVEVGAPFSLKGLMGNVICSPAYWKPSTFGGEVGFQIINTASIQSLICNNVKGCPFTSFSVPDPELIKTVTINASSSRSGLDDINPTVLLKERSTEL
Sequence of AC (Q13510 22-142): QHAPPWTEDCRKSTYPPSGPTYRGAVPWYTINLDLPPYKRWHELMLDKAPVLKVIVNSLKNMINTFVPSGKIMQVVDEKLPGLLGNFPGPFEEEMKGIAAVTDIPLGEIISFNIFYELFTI
Sequence of AC (Q13510 143-395): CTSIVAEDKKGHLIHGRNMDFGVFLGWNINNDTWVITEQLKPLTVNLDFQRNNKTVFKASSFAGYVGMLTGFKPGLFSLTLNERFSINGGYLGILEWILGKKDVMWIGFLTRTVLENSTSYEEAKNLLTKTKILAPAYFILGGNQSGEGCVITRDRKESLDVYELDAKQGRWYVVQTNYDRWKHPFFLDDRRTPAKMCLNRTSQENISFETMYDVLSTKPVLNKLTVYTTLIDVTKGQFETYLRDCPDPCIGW

For `O=C(NCCCCc1ccccc1)n1c(=O)oc2cc(Br)ccc21` [Example 7, 6-Bromo-2-oxo-N-(4-phenylbutyl)-1,3-benzoxazole-3-carboxamide], the “duration of effects on ceramide levels” value in test [1] (A375 cells (low AC expression)) was “lasted up to 24 hours”. In test [1] (A375 cells), the “di-hydro ceramide species levels” value is listed as “significant increase in all di-hydro ceramide species analyzed”. Also, the “ceramide species levels (cer(d18:1/14:0), cer(d18:1/16:0), cer(d18:1/18:0), cer(d18:1/24:1))” value in test [1] (A375 cells, LC/MS) is reported as “intracellular accumulation of various ceramide species”. Further, in test [2], the AC activity entry is given as “reduction in AC activity”.

Take `O=C(NCCCCc1ccccc1)n1c(=O)oc2cc(-c3ccc(F)cc3)ccc21` [Example 25, 6-(4-Fluorophenyl)-2-oxo-N-(4-phenylbutyl)-1,3-benzoxazole-3-carboxamide]: the inhibition at 10 µM in test [3] stood at 6.7%; in test [4] it was 9.9%. In addition, the “Inhibitory activity (% Inh. at 10 μM), mean” value in test [5] is recorded as −19.7%. Moreover, in test [6], the “activity towards the off-target enzyme set” value is “has not any significant activity”.

Source of the values: patent publication US10226452B2, “Benzoxazolone derivatives as acid ceramidase inhibitors, and their use as medicaments” (FONDAZIONE ISTITUTO ITALIANO DI TECNOLOGIA, priority 2014, dated 2019).
